According to patent publication US6117841A, “Substituted peptidylamine calcium channel blockers” (Warner-Lambert Company, priority 1999, dated 2000):
Read-outs that look alike come from different tables or passages of the source.

Biological target: T1, N-type Ca^2+ Channel (Homo sapiens, UniProt Q00975)
T1 construct: host or cells: IMR-32 cells differentiated with dibutyryl cAMP and bromodeoxyuridine
Test: Measurement of N-type Ca2+ channel blocking potencies in IMR-32 cells using the fluorescent Ca2+ indicator Indo-1
Type: cell-based
Conditions: for IC50: K+ depolarization, 5 μM nitrendipine to block L-type channels, read-out: IMR 32 IC50
Method: Measurement of N-type Ca^2+ Channel Blocking Potencies of Compounds in IMR-32 Cells Using the Fluorescent Ca^2 + Indicator Indo-1
IMR-32 cells are a human tumoral cell line of neural origin. […] Calcium flux into these cells may be induced by stimulation with elevated potassium concentrations. The L-channel component of calcium flux may be blocked by adding 5 μM nitrendipine. The remaining component of calcium entry into the IMR-32 cells is due to calcium flux through N-type calcium channels. Intracellular calcium concentrations are measured using the fluorescent calcium indicator Indo-1. The effect of drug concentration on calcium uptake is studied.
The IMR-32 cell line was obtained from the American Type Culture Collection (Rockville, Md.). Cells were grown in Eagle's Minimum Essential Medium with Earle's salts supplemented with 10% fetal bovine serum, 2 mM L-Gln and antibiotic/antimycotic mixture (Gibco). At approximately 80% confluency, differentiation was induced by the addition of 1 mM dibutyryl cAMP and 2.5 μM bromodeoxyuridine to the medium. After 7 to 13 days of differentiation, cells were detached using 0.5 mM EDTA and loaded with 5 μM Indo-1 acetoxymethyl ester (Molecular Probes, Eugene, Oreg.) at 30° C. for 45 minutes. Loaded cells were washed twice, resuspended (~10^7 cells/mL) in assay buffer (10 mM HEPES/Tris pH 7.4 in Hank's Balanced Salt Solution without bicarbonate or phenol red containing 0.5% bovine serum albumin) and kept on ice until use. Fluorescence measurements were carried out in a Photon Technology International (PTI, South Brunswick, N.J.) Model RF-F3004 spectrofluorometer with dual emission monochromators using excitation at 350 nm and emission at 400 and 490 nm. The instrument was equipped with a thermostated cuvette holder with stirring capabilities as well as with a computer-controlled pump which allowed for reagent addition during measurement. Instrument control and data collection was done by PTI's OSCAR software running on an IBM compatible computer. Different concentrations of the test compounds (60 μL in dimethyl sulfoxide) were added to 5.94 mL of assay buffer containing approximately 3×10^6 loaded cells, and 5 μM nitrendipine (in 30 μL EtOH) to block L-type Ca^2+ channels. Samples were incubated for 10 minutes at 30° C. and then aliquoted into three 10×10 mm disposable acrylic cuvettes. Emission signals at 400 and 490 nm were acquired from each cuvette at 30° C. for 50 seconds. At 20 seconds after the start of reading, cells were depolarized by the addition of 160 μL of stimulation solution (1 M KCl, 68 mM CaCl2) to the cuvette via the computer-controlled pump. Ratio of dual emission signals (400 nm/ 490 nm), which is proportional to intracellular Ca^2+ concentration, was plotted against time, and the difference between maximal response after stimulation and basal value (before stimulation) was determined. Values obtained in this way were plotted as a function of drug concentration. IC50 values of test compounds were calculated by fitting a four-parameter logistic function to the data using the least squares method.

[1] = 1 μM, IMR-32 cells, 5 μM nitrendipine
[2] = 10 μM, IMR-32 cells, 5 μM nitrendipine

T1 sequence (Q00975 whole entry): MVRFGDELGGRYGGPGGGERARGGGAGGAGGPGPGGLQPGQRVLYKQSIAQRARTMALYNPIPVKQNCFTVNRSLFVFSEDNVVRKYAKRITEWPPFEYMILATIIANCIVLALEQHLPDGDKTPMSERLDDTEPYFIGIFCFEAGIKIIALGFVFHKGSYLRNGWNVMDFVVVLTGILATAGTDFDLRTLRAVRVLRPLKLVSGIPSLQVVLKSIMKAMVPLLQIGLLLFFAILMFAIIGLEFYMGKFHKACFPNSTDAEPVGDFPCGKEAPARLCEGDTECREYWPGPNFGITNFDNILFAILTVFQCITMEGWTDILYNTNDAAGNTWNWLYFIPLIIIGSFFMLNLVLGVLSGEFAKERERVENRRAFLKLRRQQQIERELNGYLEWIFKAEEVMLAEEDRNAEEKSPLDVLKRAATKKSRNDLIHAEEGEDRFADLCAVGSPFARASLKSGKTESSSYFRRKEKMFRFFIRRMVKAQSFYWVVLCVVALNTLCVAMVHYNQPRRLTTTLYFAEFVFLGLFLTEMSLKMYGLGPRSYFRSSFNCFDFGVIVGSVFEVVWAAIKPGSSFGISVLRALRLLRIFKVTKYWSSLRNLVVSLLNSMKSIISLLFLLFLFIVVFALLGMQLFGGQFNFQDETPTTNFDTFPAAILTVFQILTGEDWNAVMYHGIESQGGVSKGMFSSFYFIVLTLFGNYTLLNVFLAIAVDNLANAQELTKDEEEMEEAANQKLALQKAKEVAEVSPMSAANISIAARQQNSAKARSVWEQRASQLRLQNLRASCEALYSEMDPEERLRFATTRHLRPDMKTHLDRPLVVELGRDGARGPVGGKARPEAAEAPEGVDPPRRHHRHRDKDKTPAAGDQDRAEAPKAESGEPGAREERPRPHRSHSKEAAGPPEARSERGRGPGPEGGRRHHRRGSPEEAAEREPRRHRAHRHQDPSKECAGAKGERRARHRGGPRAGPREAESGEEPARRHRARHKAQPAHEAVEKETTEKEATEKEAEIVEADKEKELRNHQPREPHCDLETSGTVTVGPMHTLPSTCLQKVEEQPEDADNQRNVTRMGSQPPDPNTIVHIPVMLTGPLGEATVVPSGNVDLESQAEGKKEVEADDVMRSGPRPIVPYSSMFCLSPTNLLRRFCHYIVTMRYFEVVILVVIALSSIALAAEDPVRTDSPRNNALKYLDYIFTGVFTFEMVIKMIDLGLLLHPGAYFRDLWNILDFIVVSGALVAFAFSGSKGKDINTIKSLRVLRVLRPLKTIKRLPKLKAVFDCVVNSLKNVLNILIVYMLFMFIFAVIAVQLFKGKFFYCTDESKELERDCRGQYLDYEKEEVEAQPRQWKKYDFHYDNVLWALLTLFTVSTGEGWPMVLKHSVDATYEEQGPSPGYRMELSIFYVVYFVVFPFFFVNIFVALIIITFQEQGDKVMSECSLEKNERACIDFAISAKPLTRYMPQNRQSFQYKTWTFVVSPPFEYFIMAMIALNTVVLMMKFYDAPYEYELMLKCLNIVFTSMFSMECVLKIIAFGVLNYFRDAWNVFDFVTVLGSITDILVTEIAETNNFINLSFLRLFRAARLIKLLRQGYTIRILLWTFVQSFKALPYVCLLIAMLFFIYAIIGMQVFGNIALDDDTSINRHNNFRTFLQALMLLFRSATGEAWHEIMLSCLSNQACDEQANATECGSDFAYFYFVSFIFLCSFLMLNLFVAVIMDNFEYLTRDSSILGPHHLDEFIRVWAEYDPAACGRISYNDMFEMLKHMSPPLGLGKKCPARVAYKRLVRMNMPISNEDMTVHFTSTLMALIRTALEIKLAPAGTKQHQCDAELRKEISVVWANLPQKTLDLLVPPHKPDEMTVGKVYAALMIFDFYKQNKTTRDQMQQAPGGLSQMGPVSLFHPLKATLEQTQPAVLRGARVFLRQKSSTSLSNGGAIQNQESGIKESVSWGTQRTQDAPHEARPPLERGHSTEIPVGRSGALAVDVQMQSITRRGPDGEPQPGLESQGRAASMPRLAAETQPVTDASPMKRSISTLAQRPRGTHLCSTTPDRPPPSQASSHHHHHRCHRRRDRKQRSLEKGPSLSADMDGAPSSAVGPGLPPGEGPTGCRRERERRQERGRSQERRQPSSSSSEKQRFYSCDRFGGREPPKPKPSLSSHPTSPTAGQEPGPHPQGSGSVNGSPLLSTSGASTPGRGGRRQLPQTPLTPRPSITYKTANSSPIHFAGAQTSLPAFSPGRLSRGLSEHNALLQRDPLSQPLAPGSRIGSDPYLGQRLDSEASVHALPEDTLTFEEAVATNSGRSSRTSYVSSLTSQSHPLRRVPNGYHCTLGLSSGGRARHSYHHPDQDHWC
T1 sequence (P54284 whole entry partner): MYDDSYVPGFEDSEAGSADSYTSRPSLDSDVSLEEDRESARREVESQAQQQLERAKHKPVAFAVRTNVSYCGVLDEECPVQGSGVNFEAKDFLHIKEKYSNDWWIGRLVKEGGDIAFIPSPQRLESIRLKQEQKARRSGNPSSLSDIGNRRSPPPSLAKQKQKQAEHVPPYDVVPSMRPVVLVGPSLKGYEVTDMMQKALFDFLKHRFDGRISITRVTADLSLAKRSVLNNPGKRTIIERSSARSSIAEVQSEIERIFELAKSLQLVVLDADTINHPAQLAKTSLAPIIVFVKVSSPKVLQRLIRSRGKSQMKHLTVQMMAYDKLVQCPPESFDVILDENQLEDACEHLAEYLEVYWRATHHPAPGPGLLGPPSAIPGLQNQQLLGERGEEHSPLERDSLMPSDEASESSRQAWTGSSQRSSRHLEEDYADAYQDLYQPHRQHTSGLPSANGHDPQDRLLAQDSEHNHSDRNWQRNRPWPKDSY
T1 sequence (P54289 25-946 partner limits assumed): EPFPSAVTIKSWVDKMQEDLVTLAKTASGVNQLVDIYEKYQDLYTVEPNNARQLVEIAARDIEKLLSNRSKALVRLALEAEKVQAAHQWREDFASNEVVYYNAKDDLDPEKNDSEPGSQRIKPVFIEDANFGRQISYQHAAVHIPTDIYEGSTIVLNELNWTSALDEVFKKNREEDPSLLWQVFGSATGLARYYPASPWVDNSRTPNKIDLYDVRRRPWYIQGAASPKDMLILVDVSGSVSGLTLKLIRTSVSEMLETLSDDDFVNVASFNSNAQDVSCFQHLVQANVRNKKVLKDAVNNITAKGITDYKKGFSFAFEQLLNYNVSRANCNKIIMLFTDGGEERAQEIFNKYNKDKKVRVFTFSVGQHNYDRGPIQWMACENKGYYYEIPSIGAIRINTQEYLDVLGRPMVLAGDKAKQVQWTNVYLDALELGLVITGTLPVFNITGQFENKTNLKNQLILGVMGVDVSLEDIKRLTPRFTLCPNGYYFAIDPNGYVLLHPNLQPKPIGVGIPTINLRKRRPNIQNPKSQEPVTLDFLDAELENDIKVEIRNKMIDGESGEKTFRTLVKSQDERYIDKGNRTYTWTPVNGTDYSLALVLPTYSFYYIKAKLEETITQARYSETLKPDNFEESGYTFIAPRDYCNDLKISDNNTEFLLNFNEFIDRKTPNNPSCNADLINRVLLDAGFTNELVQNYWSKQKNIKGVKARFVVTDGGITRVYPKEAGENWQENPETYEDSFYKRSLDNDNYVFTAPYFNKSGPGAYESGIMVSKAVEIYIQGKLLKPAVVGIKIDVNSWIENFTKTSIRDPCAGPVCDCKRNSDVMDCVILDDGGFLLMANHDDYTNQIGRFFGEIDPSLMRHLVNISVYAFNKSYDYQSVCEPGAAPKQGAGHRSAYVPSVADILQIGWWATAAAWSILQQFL
T1 sequence (P54289 947-1103 partner limits assumed): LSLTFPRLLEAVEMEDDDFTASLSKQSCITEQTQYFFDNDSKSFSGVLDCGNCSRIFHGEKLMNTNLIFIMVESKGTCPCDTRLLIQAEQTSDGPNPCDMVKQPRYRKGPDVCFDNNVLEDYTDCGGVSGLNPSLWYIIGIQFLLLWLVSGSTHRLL

| SMILES | IMR 32 % of Blockade @ 1 μM [1] | IMR 32 % of Blockade @ 10 μM [2] | further results |
| --- | --- | --- | --- |
| CC(C)C[C@@H](C(=O)N[C@@H](Cc1ccc(OCc2ccccc2)cc1)C(=O)NC(C)(C)C)N(C)C(C)CO (mixture of isomers) [Example 88, [S-[R*,R*,(RS)]]-2-[(2-Hydroxy-1-methyl-ethyl)-methyl-amino]-4-methyl-pentanoic acid [2-(4-benzyloxy-phenyl)-1-tert-butylcarbamoyl-ethyl]-amide] | 30% | – | – |
| CC(C)C[C@@H](C(=O)N[C@@H](Cc1ccc(OCc2ccccc2)cc1)C(=O)NC(C)(C)C)N(C)C (relative stereo) [Example 1, [S-(R*,R*)]-2-Dimethylamino-4-methyl-pentanoic acid [2-(4-benzyloxy-phenyl)-1-tert-butylcarbamoyl-ethyl]-amide] | – | – | IC50 (IMR-32 cells): 2300 nM |
| CC(C)C[C@@H](C(=O)N[C@@H](Cc1ccc(OCc2ccccc2)cc1)C(=O)N1CCCCC1)N(C)C (relative stereo) [Example 2, [S-(R*,R*)]-2-Dimethylamino-4-methyl-pentanoic acid [2-(4-benzyloxy-phenyl)-1-(piperidine-1-carbonyl)-ethyl]-amide] | 36% | 92% | – |
| CC(C)C[C@@H](C(=O)N[C@@H](Cc1ccc(OCc2ccccc2)cc1)C(=O)NCCN1CCCCC1)N(C)C (relative stereo) [Example 3, [S-(R*,R*)]-2-Dimethylamino-4-methyl-pentanoic acid [2-(4-benzyloxy-phenyl)-1-(2-piperidin-1-yl-ethylcarbamoyl)-ethyl]-amide] | 21% | 70% | – |
| CC(C)C[C@@H](C(=O)N[C@@H](Cc1ccc(OCc2ccccc2)cc1)C(=O)N1CCN(Cc2ccccc2)CC1)N(C)C (relative stereo) [Example 4, [S-(R*,R*)]-2-Dimethylamino-4-methyl-pentanoic acid [1-(4-benzyloxy-benzyl)-2-(4-benzyl-piperazin-1-yl)-2-oxo-ethyl]-amide] | 50% | 94% | – |
| CC(C)C[C@@H](C(=O)N[C@@H](Cc1ccc(OCc2ccccc2)cc1)C(=O)NC1CCN(Cc2ccccc2)CC1)N(C)C (relative stereo) [Example 5, [S-(R*,R*)]-2-Dimethylamino-4-methyl-pentanoic acid [2-(4-benzyloxy-phenyl)-1-(1-benzyl-piperidin-4-yl-carbamoyl)-ethyl]-amide] | 24% | 81% | – |
| CC(C)C[C@@H](C(=O)N[C@@H](Cc1ccc(OCc2ccccc2)cc1)C(=O)N1CCN(C)CC1)N(C)C (relative stereo) [Example 6, [S-(R*,R*)]-2-Dimethylamino-4-methyl-pentanoic acid [1-(4-benzyloxy-benzyl)-2-(4-methyl-piperazin-1-yl)-2-oxo-ethyl]-amide] | – | – | IMR 32 % of Blockade @ 1 μM: 16%; IMR 32 % of Blockade @ 10 μM: 31% |
| CC(C)CCN(C)[C@@H](CC(C)C)C(=O)N[C@@H](Cc1ccc(OCc2ccccc2)cc1)C(=O)N1CCCCC1 (relative stereo) [Example 8, [S-(R*,R*)]-4-Methyl-2-[methyl-(3-methyl-butyl)-amino]-pentanoic acid [1-(4-benzyloxy-benzyl)-2-oxo-2-piperidin-1-yl-ethyl]-amide] | 70% | 87% | – |
| CC(C)CCN(C)[C@@H](CC(C)C)C(=O)N[C@@H](Cc1ccc(OCc2ccccc2)cc1)C(=O)NCCN1CCCCC1 (relative stereo) [Example 9, [S-(R*,R*)]-4-Methyl-2-[methyl-(3-methyl-butyl)-amino]-pentanoic acid [2-(4-benzyloxy-phenyl)-1-(2-piperidin-1-yl-ethylcarbamoyl)-ethyl]-amide] | 60% | 89% | – |
| CC(C)CCN(C)[C@@H](CC(C)C)C(=O)N[C@@H](Cc1ccc(OCc2ccccc2)cc1)C(=O)NC1CCN(Cc2ccccc2)CC1 (relative stereo) [Example 11, [S-(R*,R*)]-4-Methyl-2-[methyl-(3-methyl-butyl)-amino]-pentanoic acid [2-(4-benzyloxy-phenyl)-1-(1-benzyl-piperidin-4-ylcarbamoyl)-ethyl]-amide] | 70% | 89% | – |
| CC(C)CCN(C)[C@@H](CC(C)C)C(=O)N[C@@H](Cc1ccc(OCc2ccccc2)cc1)C(=O)N1CCN(C)CC1 (relative stereo) [Example 12, [S-(R*,R*)]-4-Methyl-2-[methyl-(3-methyl-butyl)-amino]-pentanoic acid [1-(4-benzyloxy-benzyl)-2-(4-methyl-piperazin-1-yl)-2-oxo-ethyl]-amide] | 39% | 88% | – |
| CC(C)C[C@@H](C(=O)N[C@@H](Cc1ccc(OCc2ccccc2)cc1)C(=O)N1CCCCC1)N(C)Cc1ccc(C(C)(C)C)cc1 (relative stereo) [Example 14, [S-(R*,R*)]-2-[(4-tert-Butyl-benzyl)-methyl-amino]-4-methyl-pentanoic acid [2-(4-benzyloxy-phenyl)-1-(piperidine-1-carbonyl)-ethyl]-amide] | 80% | 85% | – |
| CC(C)C[C@@H](C(=O)N[C@@H](Cc1ccc(OCc2ccccc2)cc1)C(=O)NCCN1CCCCC1)N(C)Cc1ccc(C(C)(C)C)cc1 (relative stereo) [Example 15, [S-(R*,R*)]-2-[(4-tert-Butyl-benzyl)-methyl-amino]-4-methyl-pentanoic acid [2-(4-benzyloxy-phenyl)-1-(2-piperidin-1-yl-ethylcarbamoyl)-ethyl]-amide] | 56% | 80% | – |
| CC(C)C[C@@H](C(=O)N[C@@H](Cc1ccc(OCc2ccccc2)cc1)C(=O)N1CCN(Cc2ccccc2)CC1)N(C)Cc1ccc(C(C)(C)C)cc1 (relative stereo) [Example 16, [S-(R*,R*)-2-[(4-tert-Butyl-benzyl)-methyl-amino]-4-methyl-pentanoic acid [1-(4-benzyloxy-benzyl)-2-(4-benzyl-piperazin-1-yl)-2-oxo-ethyl]-amide] | 41% | 66% | – |
| CC(C)C[C@@H](C(=O)N[C@@H](Cc1ccc(OCc2ccccc2)cc1)C(=O)NC1CCN(Cc2ccccc2)CC1)N(C)Cc1ccc(C(C)(C)C)cc1 (relative stereo) [Example 17, S-(R*,R*)]-2-[(4-tert-Butyl-benzyl)-methyl-amino]-4-methyl-pentanoic acid [2-(4-benzyloxy-phenyl)-1-(1-benzyl-piperidin-4-yl-carbamoyl)-ethyl]-amide] | – | – | IC50 (IMR-32 cells): 440 nM |
| CC(C)C[C@@H](C(=O)N[C@@H](Cc1ccc(OCc2ccccc2)cc1)C(=O)N1CCN(C)CC1)N(C)Cc1ccc(C(C)(C)C)cc1 (relative stereo) [Example 18, [S-(R*,R*)]-2-[(4-tert-Butyl-benzyl)-methyl-amino]-4-methyl-pentanoic acid [1-(4-benzyloxy-benzyl)-2-(4-methyl-piperazin-1-yl)-2-oxo-ethyl]-amide] | 52% | 95% | – |
| CC(C)C[C@@H](C(=O)N[C@@H](Cc1ccc(OCc2ccccc2)cc1)C(=O)NC(C)(C)C)N(C)C1CCCCC1 (relative stereo) [Example 19, [S-(R*,R*)]-2-(Cyclohexyl-methyl-amino)-4-methyl-pentanoic acid [2-(4-benzyloxy-phenyl)-1-tert-butylcarbamoyl-ethyl]-amide] | – | – | IC50 (IMR-32 cells): 200 nM |
| CC(C)C[C@@H](C(=O)N[C@@H](Cc1ccc(OCc2ccccc2)cc1)C(=O)N1CCCCC1)N(C)C1CCCCC1 (relative stereo) [Example 20, [S-(R*,R*)]-2-(Cyclohexyl-methyl-amino)-4-methyl-pentanoic acid [2-(4-benzyloxy-phenyl)-1-(piperidine-1-carbonyl)-ethyl]-amide] | 65% | 87% | – |
| CC(C)C[C@@H](C(=O)N[C@@H](Cc1ccc(OCc2ccccc2)cc1)C(=O)NCCN1CCCCC1)N(C)C1CCCCC1 (relative stereo) [Example 21, [S-(R*,R*)]-2-(Cyclohexyl-methyl-amino)4-methyl-pentanoic acid [2-(4-benzyloxy-phenyl)-1-(2-piperidin-1-yl-ethylcarbamoyl)-ethyl]-amide] | – | – | IC50 (IMR-32 cells): 880 nM |
